{"source": "patent US6610502B1", "about": "“Compound 2-amino-3-[2-(α-mannopyranosyl)indol-3-yl]propionic acid, process for preparing the same, and method for inspecting function of living body with the novel compound” (Kyowa Medex Co., Ltd., priority 1997, dated 2003)", "key": {"[1]": {"tested_on": "monoclonal antibody specifically reactive with 2-amino-3-[2-(α-mannopyranosyl)indole-3-yl]propionic acid", "experiment": "Confirming the specificity of the monoclonal antibody (competitive enzyme immunoassay, absorbance at 660 nm)", "type": "binding, mouse", "settings": "test samples at concentrations not more than 100 μg/ml; plate coated with BSA conjugate", "procedure": "First, 50 μl of 2-amino-3-[2-(α-D-mannopyranosyl)indole-3-yl]propionic acid-BSA conjugate solution (20 μg/ml, 0.1M carbonate buffer, pH9.5) was dispensed into a 96-well microtiter plate (available from NUNC) and left to stand at 4° C. overnight. After washing the plate with PBS (×3), 250 μl of 1% BSA/PBS solution was dispensed into the plate and left to stand at room temperature for 1 hour. Then, the plate was washed with PBS (×3) to be used as a reaction plate. Next, 50 μl of 0.1M phosphate buffer (pH 7.4) containing varied concentrations of test sample/0.1% BSA was dispensed into the reaction plate into which 50 μl of the monoclonal antibody prepared in e. Purifying the antibodies above (0.1M phosphate buffer containing l10 ng/ml 0.1% BSA, pH7.4) was added while stirring. The mixture was allowed to react at room temperature for 3 hours. After the reaction was completed, the plate was washed with PBS containing 0.05% Tween 20 (5×), and then 50 μl of POD labeled-anti-mouse immunoglobulins-rabbit IgG (DAKO) was added to the plate for reaction at room temperature for 1 hour. […] Finally, 50 μl of reaction stopper (ethyldiethyldithiocarbamate) was added to the plate of which absorbance was then determined at 660 nm by a microplate reader."}, "[2]": {"experiment": "GFR assay, comparative example: creatinine in the same samples by enzymatic assay kit, clearance (Example 8)", "type": "in vivo, human"}, "[3]": {"experiment": "Assay of excreted amount in urine, comparative example: creatinine by enzymatic assay kit (Example 9)", "type": "in vivo, human", "settings": "healthy persons"}}, "note": "Several values for one entry are separate records, joined by “and”; a condition that tells them apart may be missing. Equal entries are not always repeated.", "data": [{"smiles": "O=C[C@@H](O)[C@@H](O)[C@H](O)[C@H](O)CO", "note": "(racemic) [DL-mannose]", "values": [{"measurement": "decrease in the absorbance (reaction with the antibody)", "setting": "[1]", "value": "no decrease"}]}, {"smiles": "N[C@@H](Cc1c[nH]c2ccccc12)C(=O)O", "note": "[L-tryptophan]", "values": [{"measurement": "decrease in the absorbance (reaction with the antibody)", "setting": "[1]", "value": "no decrease"}]}, {"smiles": "CN1CC(=O)NC1=N", "note": "[creatinine]", "values": [{"measurement": "creatinine in serum", "setting": "[2]; Average of 18 subjects", "value": 0.65, "unit": "mg/dL"}, {"measurement": "creatinine in urine", "setting": "[2]; Average of 18 subjects", "value": 72.12, "unit": "mg/dL"}, {"measurement": "creatinine in serum", "setting": "[2]; individual subjects 1-18, patients with non-renal disease", "value": "0.61 mg/dl and 0.80 mg/dl (3×) and 0.50 mg/dl and 0.40 mg/dl (3×) and 0.70 mg/dl (4×) and 0.56 mg/dl and 0.72 mg/dl and 0.63 mg/dl and 0.64 mg/dl and 0.71 mg/dl and 0.84 mg/dl"}, {"measurement": "creatinine in urine", "setting": "[2]; individual subjects 1-18, urine stored for 24 hours", "value": "50.1 mg/dL and 48.9 mg/dL and 21.2 mg/dL and 51.9 mg/dL and 30.5 mg/dL and 70.2 mg/dL and 32.0 mg/dL and 74.1 mg/dL and 48.2 mg/dL and 138.8 mg/dL and 46.5 mg/dL and 100.2 mg/dL and 63.5 mg/dL and 142.0 mg/dL and 88.0 mg/dL and 69.9 mg/dL and 183.1 mg/dL and 39.0 mg/dL"}, {"measurement": "excreted amount in urine, average", "setting": "[3]; female, age 0-10", "value": 245, "unit": "mg/day"}, {"measurement": "excreted amount in urine, average", "setting": "[3]; female, age 0-90", "value": 559, "unit": "mg/day"}, {"measurement": "excreted amount in urine, average", "setting": "[3]; female, age 10-30", "value": 609, "unit": "mg/day"}, {"measurement": "excreted amount in urine, average", "setting": "[3]; female, age 30-50", "value": 742, "unit": "mg/day"}, {"measurement": "excreted amount in urine, average", "setting": "[3]; female, age 50-70", "value": 684, "unit": "mg/day"}, {"measurement": "excreted amount in urine, average", "setting": "[3]; female, age 70-90", "value": 515, "unit": "mg/day"}, {"measurement": "excreted amount in urine, average", "setting": "[3]; male, age 0-10", "value": 387, "unit": "mg/day"}, {"measurement": "excreted amount in urine, average", "setting": "[3]; male, age 0-90", "value": 833, "unit": "mg/day"}, {"measurement": "excreted amount in urine, average", "setting": "[3]; male, age 10-30", "value": 1066, "unit": "mg/day"}, {"measurement": "excreted amount in urine, average", "setting": "[3]; male, age 50-70", "value": 893, "unit": "mg/day"}, {"measurement": "excreted amount in urine, average", "setting": "[3]; male, age 70-90", "value": 599, "unit": "mg/day"}]}]}
